For experiment [1], the system named is E. coli (ATCC 25922). The experiment can be described thus: microbe, parasite or virus in culture. The note with it: Escherichia coli.
Experiment [2] relates to E. coli (ATCC 25922). The conditions noted are these: for MIC of Compound (μg/ml) in the presence of PMBN (128 μg/ml): Table 1, (b) No effect; for MIC of Compound (μg/ml) in the presence of PMBN (32 μg/ml): (b) No significant effect.
The mark [3] stands for this setting: ATCC25922, read-out: MIC Compound alone, Table 1.
The mark [4] stands for this setting: ATCC25922, read-out: MIC Compound alone, Table 12.
[5] abbreviates: ATCC25922, read-out: MIC Compound alone.

Values after ≈ are worked out from the molar mass of the structure shown. Like-named read-outs stand apart in the source and are kept apart here. Positions of bridges follow the written chain, without caps; N, C: chain ends. Non-standard residues stand in square brackets, D forms with d. Residues, ends and D or L forms follow the SMILES beside them. *: point of attachment. Ileψ(thiazoline)Cys = CC[C@H](C)[C@H](N)C1=N[C@H](C(=O)*)CS1; dOrn = NCCC[C@@H](N)C(=O)O

As to `CCNC(=O)Nc1nc2cc(-c3cnc(NC(=O)N4CC[C@@H](O)C4)nc3)cc(-c3ccc(C)cn3)c2s1` [Compound A-1, (3R)—N-[5-[2-(Ethylcarbamoylamino)-7-(5-methyl-2-pyridyl)-1,3-benzothiazol-5-yl]pyrimidin-2-yl]-3-hydroxy-pyrrolidine-1-carboxamide], the MIC in experiment [1] (setting [3]) is over 64 µg/mL. In addition, the “MIC of Compound (μg/ml) in the presence of PMBN (128 μg/ml)” value (“MIC of Compound (μg/ml) … (128 μg/ml)” below) in experiment [2] was 0.12 µg/mL.
Take `CC[C@H](C)[C@H](N)C1=N[C@H](C(=O)N[C@@H](CC(C)C)C(=O)N[C@H](CCC(=O)O)C(=O)N[C@H](C(=O)N[C@H]2CCCCNC(=O)[C@H](CC(N)=O)NC(=O)[C@@H](CC(=O)O)NC(=O)[C@H](Cc3cnc[nH]3)NC(=O)[C@@H](Cc3ccccc3)NC(=O)[C@H]([C@@H](C)CC)NC(=O)[C@@H](CCCN)NC2=O)[C@@H](C)CC)CS1` [Bacitracin, reference compound] ({Ileψ(thiazoline)Cys}-L[dE]IK[dOrn]I[dF]H[dD]N; lactam 4-C): the “MIC Compound alone” value in experiment [2] (ATCC 25922) was over 64 µg/mL. The “MIC of Compound (μg/ml) in the presence of PMBN (32 μg/ml)” value (“MIC of Compound (μg/ml) … (32 μg/ml)” below) in experiment [2] (Table 12) is listed as >64^(b) μg/ml.
Take `CCNC(=O)Nc1nc2cc(-c3cnc(N4CCC(C)(C(=O)O)CC4)nc3)cc(-c3ccccn3)c2s1` [Example 1 (WO2012/045124), 1-[5-[2-(ethylcarbamoylamino)-7-(2-pyridyl)-1,3-benzothiazol-5-yl]pyrimidin-2-yl]-4-methyl-piperidine-4-carboxylic acid]: the MIC in experiment [1] (setting [3]) is over 64 µg/mL. Also, the “MIC of Compound (μg/ml) … (128 μg/ml)” value in experiment [2] stood at 0.5 µg/mL.
On to `O=C(N[C@H](CO)[C@H](O)c1ccc([N+](=O)[O-])cc1)C(Cl)Cl` [Chloramphenicol, reference compound], for which the MIC in experiment [1] (setting [4]) was determined as 4 µg/mL (≈ 12.4 µM). The “MIC of Compound (μg/ml) … (32 μg/ml)” value in experiment [2] (Table 12) turned out to be 1 µg/mL.
Turning to `CCNC(=O)Nc1nc2cc(-c3cnc(CNS(C)(=O)=O)nc3)cc(-c3ccc(C)cn3)c2s1` [Compound A-19, 1-ethyl-3-[5-[2-(methanesulfonamidomethyl)pyrimidin-5-yl]-7-(5-methyl-2-pyridyl)-1,3-benzothiazol-2-yl]urea], in experiment [1] (setting [3]), the MIC was over 64 µg/mL. Further, the “MIC of Compound (μg/ml) … (128 μg/ml)” value in experiment [2] was “<=.12 μg/ml”.
As to `CN(C)[C@@H]1C(O)=C(C(N)=O)C(=O)[C@@]2(O)C(O)=C3C(=O)c4c(O)cccc4[C@@](C)(O)[C@H]3C[C@@H]12` [Tetracycline, reference compound], the MIC in experiment [1] (setting [5]) turned out to be 1 µg/mL (≈ 2.25 µM). Also, in experiment [2] (Table 12), the “MIC of Compound (μg/ml) … (32 μg/ml)” value was 1^(b) μg/ml.
Take `C=CCS(=O)(=O)Nc1ncc(-c2cc(-c3ccc(C)cn3)c3sc(NC(=O)NCC)nc3c2)cn1` [Compound A-17, 1-[5-[2-(allylsulfonylamino)pyrimidin-5-yl]-7-(5-methyl-2-pyridyl)-1,3-benzothiazol-2-yl]-3-ethyl-urea]: the MIC in experiment [1] (setting [3]) was 2 µg/mL (≈ 3.92 µM). Further, in experiment [2], the “MIC of Compound (μg/ml) … (128 μg/ml)” value is 0.03 µg/mL.
For `CCNC(=O)Nc1nc2cc(-c3cnc(NC(=O)OC)nc3)cc(-c3ccccn3)c2s1` [Compound A-5, Methyl N-[5-[2-(ethylcarbamoylamino)-7-(2-pyridyl)-1,3-benzothiazol-5-yl]pyrimidin-2-yl]carbamate], in that order: over 64 µg/mL and 0.008 µg/mL.
Gentamicin [reference compound]: in experiment [2] (Table 12), the “MIC Compound alone” value was 8 µg/mL and the “MIC of Compound (μg/ml) … (32 μg/ml)” value is listed as 8^(b) μg/ml.
For `CC(C)(C)S(=O)(=O)Nc1ncc(-c2cc(Br)c3sc(N)nc3c2)cn1` [Compound A-102, N-[5-(2-amino-7-bromo-1,3-benzothiazol-5-yl)pyrimidin-2-yl]-2-methyl-propane-2-sulfonamide], the MIC in experiment [1] (setting [3]) was over 64 µg/mL. For the same molecule, the “MIC of Compound (μg/ml) … (128 μg/ml)” value in experiment [2] was 2 µg/mL.
With `CCn1cc(C(=O)O)c(=O)c2cc(F)c(N3CCNCC3)nc21` [Enoxacin, reference compound], the MIC in experiment [1] (setting [4]) turned out to be 0.06 µg/mL (≈ 0.187 µM). For the same molecule, in experiment [2] (Table 12), the “MIC of Compound (μg/ml) … (32 μg/ml)” value is given as 0.03^(b) μg/ml.
In the case of `CCNC(=O)Nc1nc2cc(-c3cc(C)n(C(C)c4ccc(C)nc4)c(=O)c3)cc(-c3ccccn3)c2s1` (stereo not drawn) [Compound A-4, 1-Ethyl-3-[5-[2-methyl-1-[1-(6-methyl-3-pyridyl)ethyl]-6-oxo-4-pyridyl]-7-(2-pyridyl)-1,3-benzothiazol-2-yl]urea], the MIC in experiment [1] (setting [3]) was over 64 µg/mL. Also, the “MIC of Compound (μg/ml) … (128 μg/ml)” value in experiment [2] is 0.5 µg/mL.
For `CCNC(=O)Nc1nc2cc(-c3cccnc3)cc(C(=O)OC)c2[nH]1` [Compound A-22, Methyl 2-(ethylcarbamoylamino)-6-(3-pyridyl)-3H-benzimidazole-4-carboxylate, reference compound], the MIC in experiment [1] (setting [3]) worked out at 8 µg/mL (≈ 23.6 µM). Moreover, the “MIC of Compound (μg/ml) … (128 μg/ml)” value in experiment [2] worked out at 0.5 µg/mL.
In the case of `CC(C)(O/N=C(\C(=O)N[C@@H]1C(=O)N2C(C(=O)[O-])=C(C[n+]3ccccc3)CS[C@H]12)c1csc(N)n1)C(=O)O` [Ceftazidime, reference compound], the MIC in experiment [1] (setting [4]) is 0.6 µg/mL (≈ 1.1 µM). Further, the “MIC of Compound (μg/ml) … (32 μg/ml)” value in experiment [2] (Table 12) worked out at 0.15 µg/mL.
Take `CCNC(=O)Nc1nc2cc(-c3cnc(C(C)(O)CO)nc3)cc(C)c2s1` (stereo not drawn) [Compound A-9, 1-[5-[2-(1,2-Dihydroxy-1-methyl-ethyl)pyrimidin-5-yl]-7-methyl-1,3-benzothiazol-2-yl]-3-ethyl-urea]: the MIC in experiment [1] (setting [3]) came out at 32 µg/mL (≈ 82.6 µM). Also, in experiment [2], the “MIC of Compound (μg/ml) … (128 μg/ml)” value is 2 µg/mL.
Consider `CCN1CCN(C(=O)N[C@@H](C(=O)N[C@@H]2C(=O)N3[C@@H]2SC(C)(C)[C@@H]3C(=O)O)c2ccccc2)C(=O)C1=O` [Piperacillin, reference compound], for which the MIC in experiment [1] (setting [5]) is 2 µg/mL (≈ 3.86 µM). Further, the “MIC of Compound (μg/ml) … (32 μg/ml)” value in experiment [2] (Table 12) is 0.25 µg/mL.
As for `CCNC(=O)Nc1nc2c(-c3ccc(C)cn3)cc(-c3cnc(NS(=O)(=O)C(C)(C)C)nc3)cn2n1` [Compound A-101, 1-[6-[2-(tert-butylsulfonylamino)pyrimidin-5-yl]-8-(5-methyl-2-pyridyl)-[1,2,4]triazolo[1,5-a]pyridin-2-yl]-3-ethyl-urea], the MIC in experiment [1] (setting [3]) is over 64 µg/mL. Moreover, in experiment [2], the “MIC of Compound (μg/ml) … (128 μg/ml)” value was found to be 2 µg/mL.
Regarding `NC[C@H]1O[C@H](O[C@H]2[C@H](O)[C@@H](O[C@H]3O[C@H](CO)[C@@H](O)[C@H](N)[C@H]3O)[C@H](N)C[C@@H]2N)[C@H](O)[C@@H](O)[C@@H]1O` [Kanamycin, reference compound], the MIC in experiment [1] (setting [4]) stood at 8 µg/mL (≈ 16.5 µM). Also, the “MIC of Compound (μg/ml) … (32 μg/ml)” value in experiment [2] (Table 12) is given as 4^(b) μg/ml.
For `CN(C)c1cc(NC(=O)CNC(C)(C)C)c(O)c2c1C[C@H]1C[C@H]3[C@H](N(C)C)C(O)=C(C(N)=O)C(=O)[C@@]3(O)C(O)=C1C2=O` [Tigecyclin, reference compound], in experiment [2] (Table 12), the “MIC Compound alone” value is listed as “≦0.25 μg/ml” and the “MIC of Compound (μg/ml) … (32 μg/ml)” value was “≦0.25^(b) μg/ml”.
Consider `CCNC(=O)Nc1nc2cc(-c3cccnc3)ccc2s1` [Example 1 Compound VI(a) (WO2009/074812), 1-ethyl-3-(5-pyridin-3-yl-benzothiazol-2-yl)-urea], for which the MIC in experiment [1] (setting [3]) was over 64 µg/mL. Further, the “MIC of Compound (μg/ml) … (128 μg/ml)” value in experiment [2] was 8 µg/mL.
Regarding `CCNC(=O)Nc1nc2cc(-c3cnc(NS(=O)(=O)C(C)(C)C)nc3)cc(N3CCN(CCN4CCCC4)CC3)c2s1` [Compound A-20, 1-[5-[2-(tert-butylsulfonylamino)pyrimidin-5-yl]-7-[4-(2-pyrrolidin-1-ylethyl)piperazin-1-yl]-1,3-benzothiazol-2-yl]-3-ethyl-urea], in experiment [1] (setting [3]), the MIC is over 64 µg/mL. For the same molecule, in experiment [2], the “MIC of Compound (μg/ml) … (128 μg/ml)” value stood at 32 µg/mL.
Regarding `CCNC(=O)Nc1nc2cc(-c3cnc(NC(=O)N4CCCC4)nc3)cc(-c3cc(CN4CCOCC4)ccn3)c2s1` [Compound A-6, N-[5-[2-(Ethylcarbamoylamino)-7-[4-(morpholinomethyl)-2-pyridyl]-1,3-benzothiazol-5-yl]pyrimidin-2-yl]pyrrolidine-1-carboxamide], in experiment [1] (setting [3]), the MIC was over 64 µg/mL. Moreover, the “MIC of Compound (μg/ml) … (128 μg/ml)” value in experiment [2] worked out at 0.25 µg/mL.
In the same order, the values of `CCNC(=O)Nc1nc2cc(-c3cnc(NS(=O)(=O)CC(=O)OC)nc3)cc(-c3ccc(C)cn3)c2s1` [Compound A-16, Methyl 2-[[5-[2-(ethylcarbamoylamino)-7-(5-methyl-2-pyridyl)-1,3-benzothiazol-5-yl]pyrimidin-2-yl]sulfamoyl]acetate] are over 64 µg/mL and 0.25 µg/mL.
`C[C@@H](O)[C@H]1C(=O)N2C(C(=O)O)=C(SCCN=CN)C[C@H]12` [Imipenem, reference compound]: the MIC in experiment [1] (setting [4]) is 0.5 µg/mL (≈ 1.67 µM). Also, the “MIC of Compound (μg/ml) … (32 μg/ml)” value in experiment [2] (Table 12) is 0.5^(b) μg/ml.
For `CC1(C)S[C@@H]2[C@H](NC(=O)C(C(=O)O)c3ccccc3)C(=O)N2[C@H]1C(=O)O` (stereo partly drawn) [Carbenicillin, reference compound], in that order: 64 µg/mL (≈ 169 µM) and 32^(b) μg/ml.
As for `CCNC(=O)Nc1nc2cc(-c3cc(C)n(Cc4cccc(C)n4)c(=O)c3)cc(-c3ccccn3)c2s1` [Compound A-2, 1-Ethyl-3-[5-[2-methyl-1-[(6-methyl-2-pyridyl)methyl]-6-oxo-4-pyridyl]-7-(2-pyridyl)-1,3-benzothiazol-2-yl]urea], the MIC in experiment [1] (setting [3]) is over 64 µg/mL. The “MIC of Compound (μg/ml) … (128 μg/ml)” value in experiment [2] is reported as “<=.12 μg/ml”.
Take `CCNC(=O)Nc1nc2cc(-c3cccnc3)cc(-c3ncccc3N)c2s1` [Example 94 (WO2007/148093)]: the MIC in experiment [1] (setting [3]) was over 64 µg/mL. Moreover, in experiment [2], the “MIC of Compound (μg/ml) … (128 μg/ml)” value is 32 µg/mL.
Consider Polymyxin B [PMB, reference compound], for which the “MIC PMB alone” value in experiment [2] (Table 3) was 1 µg/mL.
On to `C[C@H]1COc2c(N3CCN(C)CC3)c(F)cc3c(=O)c(C(=O)O)cn1c23` [Levofloxacin, reference compound], for which, in experiment [1] (setting [4]), the MIC is 0.008 µg/mL (≈ 0.0221 µM). The “MIC of Compound (μg/ml) … (32 μg/ml)” value in experiment [2] (Table 12) is listed as 0.008^(b) μg/ml.

For the origin of these results see patent US20170007615A1, “Antibacterial Compounds” (priority 2014, published 2017).
